Assay results reported in ChEMBL document CHEMBL1914411, “Synthesis of lipophilic dimeric C-7/C-7-linked ciprofloxacin and C-6/C-6-linked levofloxacin derivatives. Versatile in vitro biological evaluations of monomeric and dimeric fluoroquinolone derivatives as potential antitumor, antibacterial or antimycobacterial agents” (Eur J Med Chem, 2011).
≈ marks a conversion by molar mass, not a printed value. Calls of active or inactive are those of the source. The rule behind the calls is not given here.

Tests used:
Staphylococcus aureus = assay: Antimicrobial activity against Staphylococcus aureus CIP 4.83 after 18 to 24 hrs by broth microdilution method; assay type: functional
Enterococcus hirae = assay: Antimicrobial activity against Enterococcus hirae CIP 5855 after 18 to 24 hrs by broth microdilution method; assay type: functional
Pseudomonas aeruginosa = assay: Antimicrobial activity against Pseudomonas aeruginosa CIP 82.118 after 18 to 24 hrs by broth microdilution method; assay type: functional
Escherichia coli = assay: Antimicrobial activity against Escherichia coli CIP 53126 after 18 to 24 hrs by broth microdilution method; assay type: functional
[1] = test system: Mycobacterium tuberculosis; assay: Antimycobacterial activity against Mycobacterium tuberculosis H37Rv assessed as growth inhibition at 0.1 uM after 6 days by MTT colorimetric microassay; assay type: functional, organism-based

Compound	MBC (Staphylococcus aureus) [µM]	MIC (Staphylococcus aureus) [µM]	MBC (Enterococcus hirae) [µM]	MIC (Enterococcus hirae) [µM]	MBC (Pseudomonas aeruginosa) [µM]	MIC (Pseudomonas aeruginosa) [µM]	MBC (Escherichia coli) [µM]	MIC (Escherichia coli) [µM]	growth inhibition (GI) [1]
CCCCCCCCCCOC(=O)N1CCN(c2cc3c(cc2F)c(=O)c(C(=O)O)cn3C2CC2)CC1	62.5 (≈ 32.2 µg/mL)	62.5 (≈ 32.2 µg/mL)	500 (≈ 258 µg/mL)	62.5 (≈ 32.2 µg/mL)	250 (≈ 129 µg/mL)	125 (≈ 64.5 µg/mL)	500 (≈ 258 µg/mL)	125 (≈ 64.5 µg/mL)	inactive
CCCCCCCCOC(=O)N1CCN(c2cc3c(cc2F)c(=O)c(C(=O)O)cn3C2CC2)CC1	62.5 (≈ 30.5 µg/mL)	7.8 (≈ 3.8 µg/mL)	125 (≈ 60.9 µg/mL)	125 (≈ 60.9 µg/mL)	250 (≈ 122 µg/mL)	125 (≈ 60.9 µg/mL)	500 (≈ 244 µg/mL)	125 (≈ 60.9 µg/mL)	inactive
O=C(O)c1cn(C2CC2)c2cc(N3CCN(C(=O)CCl)CC3)c(F)cc2c1=O	≤ 0.97	≤ 0.97	3.9 (≈ 1.59 µg/mL)	3.9 (≈ 1.59 µg/mL)	250 (≈ 102 µg/mL)	31.2 (≈ 12.7 µg/mL)	≤ 0.97	≤ 0.97	inactive
CCCCCCNC(=O)c1cn2c3c(c(N4CCN(C)CC4)c(F)cc3c1=O)OC[C@@H]2C	250 (≈ 111 µg/mL)	250 (≈ 111 µg/mL)	250 (≈ 111 µg/mL)	125 (≈ 55.6 µg/mL)	250 (≈ 111 µg/mL)	62.5 (≈ 27.8 µg/mL)	500 (≈ 222 µg/mL)	125 (≈ 55.6 µg/mL)	inactive
O=C(O)c1cn(C2CC2)c2cc(N3CCN(C(=O)CCCCCCCCCCCCCCC(=O)N4CCN(c5cc6c(cc5F)c(=O)c(C(=O)O)cn6C5CC5)CC4)CC3)c(F)cc2c1=O	15.6 (≈ 14.2 µg/mL)	1.9 (≈ 1.73 µg/mL)	500 (≈ 457 µg/mL)	62.5 (≈ 57.1 µg/mL)	250 (≈ 228 µg/mL)	62.5 (≈ 57.1 µg/mL)	500 (≈ 457 µg/mL)	62.5 (≈ 57.1 µg/mL)	inactive
CCCCCCCCCCCCCCCC(=O)OCC(=O)N1CCN(c2cc3c(cc2F)c(=O)c(C(=O)O)cn3C2CC2)CC1	500 (≈ 314 µg/mL)	62.5 (≈ 39.2 µg/mL)	500 (≈ 314 µg/mL)	125 (≈ 78.5 µg/mL)	250 (≈ 157 µg/mL)	125 (≈ 78.5 µg/mL)	500 (≈ 314 µg/mL)	125 (≈ 78.5 µg/mL)	inactive
CCCCCCCCCOC(=O)N1CCN(c2cc3c(cc2F)c(=O)c(C(=O)O)cn3C2CC2)CC1	125 (≈ 62.7 µg/mL)	62.5 (≈ 31.3 µg/mL)	250 (≈ 125 µg/mL)	62.5 (≈ 31.3 µg/mL)	250 (≈ 125 µg/mL)	125 (≈ 62.7 µg/mL)	500 (≈ 251 µg/mL)	125 (≈ 62.7 µg/mL)	inactive
CCCCCCCCCCCCOC(=O)N1CCN(c2cc3c(cc2F)c(=O)c(C(=O)O)cn3C2CC2)CC1	125 (≈ 68 µg/mL)	125 (≈ 68 µg/mL)	500 (≈ 272 µg/mL)	62.5 (≈ 34 µg/mL)	125 (≈ 68 µg/mL)	125 (≈ 68 µg/mL)	250 (≈ 136 µg/mL)	125 (≈ 68 µg/mL)	inactive
CCCCNC(=O)c1cn2c3c(c(N4CCN(C)CC4)c(F)cc3c1=O)OC[C@@H]2C	125 (≈ 52.1 µg/mL)	125 (≈ 52.1 µg/mL)	250 (≈ 104 µg/mL)	125 (≈ 52.1 µg/mL)	250 (≈ 104 µg/mL)	62.5 (≈ 26 µg/mL)	62.5 (≈ 26 µg/mL)	62.5 (≈ 26 µg/mL)	inactive
CCCCCCCCCCCCCC(=O)N1CCN(c2cc3c(cc2F)c(=O)c(C(=O)O)cn3C2CC2)CC1	125 (≈ 67.7 µg/mL)	125 (≈ 67.7 µg/mL)	250 (≈ 135 µg/mL)	62.5 (≈ 33.9 µg/mL)	250 (≈ 135 µg/mL)	125 (≈ 67.7 µg/mL)	500 (≈ 271 µg/mL)	125 (≈ 67.7 µg/mL)	inactive
